Data reported in patent US20210047278A1, “E3 UBIQUITIN LIGASE AGONISTS, PHARMACEUTICAL COMPOSITIONS INCLUDING THE E3 UBIQUITIN LIGASE AGONISTS, RELATED METHODS OF USE” (FRED HUTCHINSON CANCER RESEARCH CENTER, priority 2018, published 2021).
Where two headings read alike, the source gives them in different places.

How the values were obtained:
Assay type in all cases: binding
[1] = target: T1, FBW7^ARG+pCycE (Homo sapiens, UniProt Q969H0, R505L); test: FBW7^ARG-cyclin E agonist ALPHAscreen (primary PRUN, confirmation CRUN1, dose-response DRUN); settings: for EC50 / Emax: DRUN dose-response; for Emax: relative to WT-FBW7+pCycE, read-out: FBW7 ACT Averaged Max % Response
T1 construct: GST (TEV site and flexible linker) (N, cleaved yes); made in house; host or cells: SF9 insect cells (baculovirus)
From the text: FBW7^ARG refers to a class of loss-of-function mutations of the of FBW7 ubiquitin ligase that target a key phosphate-binding arginine residue in the FBW7 substrate-binding domain. These mutations are commonly found in human cancers and promote tumorigenesis by impairing the interactions between FBW7 and its substrates, such as cyclin E and Myc. Described herein is a high throughput screen (HTS) to identify agonists, such as small molecules, that augment FBW7^ARG-substrate binding. In an embodiment, the HTS is based on the Amplified Luminescent Proximity Homogenous Assay (ALPHAscreen) because it detects protein-protein interactions with a large dynamic range. ALPHAscreen is a bead-based proximity assay wherein donor beads contain a photosensitizer, phthalocyanine, and acceptor beads contain thioxene, anthracene and rubrenein in sufficient quantities to generate a chemiluminescence/fluorescence reaction (FIG. 4A). Upon excitation with excitation illumination, such as light having a wavelength of 680 nm, of the donor beads, phthalocyanine converts ambient oxygen to singlet oxygen, which can diffuse approximately 200 nm within its 4-microsecond half-life. If an acceptor bead is in close proximity to an excited donor bead, singlet oxygen transfers its energy to the acceptor, resulting in emitted light at a broad bandwidth of −520-620 nm. The HTS-compatible FBW7/cyclin E ALPHAscreen assay described herein uses streptavidin coupled donor beads and Ni-chelate acceptor beads. In this assay, biotinylated cyclin E phosphopeptide and the His-tagged FBW7 mutant protein have high affinity for the donor and acceptor beads, respectively (FIG. 4B). A small molecule that is able to bridge the binding sites of the peptide and the mutant protein (or induce a conformational change that increases affinity of the protein for the peptide) will bring the donor and acceptor beads in close proximity to each other, resulting in an ALPHA signal. As designed, this assay format is a very sensitive, non-radioactive, homogenous “mix-and-read” format that is HT compatible in 384 and 1536 well formats.
In the 384-well screening assay, 10 uL of acceptor beads with 25 nM of the FBW7^ARG (RLFBW7) are dispensed to test wells; acceptor beads with 25 nM of the wt-FBW7 protein (WTFBW7) are dispensed to control wells. Test compounds are then added by pintool transfer and the mixture is incubated for 30 minutes. An additional 10 uL of donor beads with 25 nM cyclin E phosphopeptide is then added to all wells and the plate is incubated for 4 hours before the ALPHA signal is measured.
In preparation for large-scale screening, the assay was miniaturized to a 1536-well format. The miniaturized screen performed outstandingly in all respects. The screen was enhanced with respect to several parameters and assayed its performance using mutant FBW7 and wt-FBW7, as well as non-specific assay agonists. […] For example, the following Z′-scores/FBW7 concentrations were obtained: 6.25 nM/Z′=0.62, 12.5 nm/Z′=0.85, 25.0 nM/Z′=0.84.
1. Add 2.5 uL of RLFBW7/cycE˜P/Ni beads: Final [25 nM/25 nM/10 ug/ml].
2. Add 2.5 uL of WTFBW7/cycE˜P/Ni beads: Final [25 nM/25 nM/10 ug/ml].
4. Add 2.5 uL of SA beads to all wells Final [10 ug/ml],
5. Add 30 nL of compounds,
6. Read ALPHAscreen on Envision
The large-scale FBW7 agonist ALPHAscreen was completed using FBW7^ARG and a phosphorylated cyclin E (pCycE) degron peptide. Wt-FBW7+pCycE-peptide was the “high control”, and Wt-FBW7+unphosph. CycE peptide was the “low control”. The screen was performed on the 645,000-compound Scripps Diversity Library using 1536-well format and drug concentrations of 26.1 μM. An algorithm aided hit identification based on the average percent activation for all compounds and their standard deviation.
A confirmation assay of all 853 compounds in triplicate using a single concentration (26.1 μM). […]

[2] = target: T2, FBW7^ARG (RLFBW7) alone (Homo sapiens, UniProt Q969H0, R505L); test: Counterscreen 1 ALPHAscreen with FBW7^ARG alone (CSRUN1/DCSRUN1); settings: dose-response counterscreen; for Emax: read-out: RLFBW7 ACT DCSRUN1 Averaged Max % Response
T2 construct: GST (TEV site and flexible linker) (N, cleaved yes); made in house; host or cells: SF9 insect cells (baculovirus)
Procedure: (§1) Studies in 384-well format were performed using the ENVISION system. Reagent concentrations (see FIG. 6A), order of addition, pH (see FIG. 6B), and reducing agent were altered with the goal of enhancing the dynamic range between wt-FBW7 (the positive control) and FBW7^ARG (FIG. 6 and not shown). Wt-FBW7 produced a signal 100× greater with phosphorylated cyclin E degron peptide compared with unphosphorylated, which represents the assay's maximum range (FIG. 6C). […] This assay thus detects the residual affinity of the FBW7^ARG-substrate interaction, which, as predicted, is stronger than wt-FBW7 protein with unphosphorylated cyclin E peptide. Concurrent with this primary assay, counter ALPHAscreens were developed which omitted either FBW7 or peptide (to eliminate hits that are general ALPHAscreen agonists), or used an irrelevant phosphopeptide (to eliminate compounds that simply augment binding to phosphopeptides). […]
(§2) The 77 hits were subjected to a dose-response assay in which each compound was tested in triplicate in a 10 point 3-fold dilutional series, to a maximum concentration of approximately 87 μM. Three screens were performed, using FBW7^ARG+pCycE (DRUN), FBW7^ARG (DCSRUN1), or pCycE alone (DCSRUN2). See TABLES 2, 3, and 4, respectively, and FIG. 10A. All of the assays performed extremely well, and threshold of 10% activation (relative to WT-FBW7+pCycE) was set as positive. […] Many hits fell into shared structure cluster ID groups, reinforcing the idea that they function as specific agonists (see below and TABLE 5).

[3] = test system: pCycE alone; test: Counterscreen 2 ALPHAscreen with cyclin E phosphopeptide alone (CSRUN2/DCSRUN2); settings: for CyCEP ACT DCSRUN2 Averaged Max % Response: activation relative to WT-FBW7+pCycE, averaged maximum; for EC50: dose-response, triplicate, 10 point 3-fold dilutional series, read-out: CyCEP ACT DCSRUN2 Final EC50
Procedure: as §1, §2

[4] = raw curve fit, read-out: FBW7 ACT EC50 Curve Fit Raw, Molar
[5] = triplicate, 10 point 3-fold dilution, max approx. 87 μM, read-out: FBW7 ACT Final EC50, Molar
[6] = confirmation assay, triplicate, single concentration 26.1 μM, read-out: FBW7 ACT CRUN1 Avg % Response and Stdev
[7] = primary screen, 1536-well, 26.1 μM, FBW7^ARG + pCycE degron peptide, high control wt-FBW7+pCycE, read-out: FBW7 ACT PRUN % Response
[8] = raw curve fit, read-out: RLFBW7 ACT DCSRUN1 EC50 Curve Fit Raw
[9] = read-out: RLFBW7 ACT DCSRUN1 Final EC50

T2 sequence (Q969H0 64-707 R505L): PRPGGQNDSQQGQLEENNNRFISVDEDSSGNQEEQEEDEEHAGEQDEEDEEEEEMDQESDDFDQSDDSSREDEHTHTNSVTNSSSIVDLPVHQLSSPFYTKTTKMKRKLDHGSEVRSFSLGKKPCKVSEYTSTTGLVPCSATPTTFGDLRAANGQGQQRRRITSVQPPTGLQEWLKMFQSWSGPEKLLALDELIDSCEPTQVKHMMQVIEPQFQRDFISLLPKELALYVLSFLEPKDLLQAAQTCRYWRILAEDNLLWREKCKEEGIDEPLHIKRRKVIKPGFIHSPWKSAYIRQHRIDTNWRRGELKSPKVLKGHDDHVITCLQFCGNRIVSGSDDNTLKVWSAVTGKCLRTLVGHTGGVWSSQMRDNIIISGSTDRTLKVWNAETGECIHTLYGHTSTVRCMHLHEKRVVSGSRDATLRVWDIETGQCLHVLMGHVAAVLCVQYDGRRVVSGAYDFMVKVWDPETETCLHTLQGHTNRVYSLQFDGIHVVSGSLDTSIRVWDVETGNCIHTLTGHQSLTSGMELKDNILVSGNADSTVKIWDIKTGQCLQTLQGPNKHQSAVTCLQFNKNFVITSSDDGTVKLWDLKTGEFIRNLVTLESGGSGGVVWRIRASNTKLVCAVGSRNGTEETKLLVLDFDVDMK
T2 sequence (P63208 2-163 partner): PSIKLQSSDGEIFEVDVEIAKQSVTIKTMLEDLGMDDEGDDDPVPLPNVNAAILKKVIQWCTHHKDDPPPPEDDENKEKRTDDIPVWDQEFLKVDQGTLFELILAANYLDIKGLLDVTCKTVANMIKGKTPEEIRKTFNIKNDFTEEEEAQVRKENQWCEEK
T1 sequence (Q969H0 64-707 R505L): as the sequence (Q969H0 64-707 R505L) above
T1 sequence (P63208 2-163 partner): as the sequence (P63208 2-163 partner) above

Row | SMILES | EC50 [1, 4] [µM] | Emax [1] [%] | EC50 [1, 5] [µM] | activation at 26.1 µM [1, 6] [%] | activation at 26.1 µM [1, 7] [%] | EC50 [2, 8] [µM] | Emax [2] [%] | EC50 [2, 9] [µM] | CyCEP ACT DCSRUN2 Averaged Max % Response [3] [%] | EC50 [3] [µM]
1 | O=C(NCc1ccc(C(=O)NCCc2ccccn2)cc1)Nc1ccc(-c2cn[nH]c2)cc1 [SR-00000005517-1] | 31.5 | 20 | > 65.3 | 4.71 ± 0.2 | 1.94 | 28.3 | 100 | 28.2 |  | 
2 | CCN1C(=O)c2cccc3c(N4CCCC4)ccc(c23)C1=O [SR-01000221568-1] | 17.4 | 16.3 | > 65.3 | 3.1 ± 0.38 | 2.07 | 14.2 | 8.96 | > 65.3 | 0.35 | > 65.3
3 | CCCOC(=O)C1=C(C)N(CC)C(=O)NC1c1ccccc1[N+](=O)[O-] (stereo not drawn) [SR-01000417871-1] | 8.6 | 17.3 | > 67.2 | 18.3 ± 0.97 | 2.55 | 2.8 | 0.3 | > 67.2 |  | 
4 | Cc1ccnc(N2CCC(C(=O)Nc3ccccc3Br)CC2)n1 [SR-01000330228-1] | 0.0482 | 6.46 | > 65.3 | 3.43 ± 0.23 | 2.08 |  | 0.25 | > 65.3 |  | 
5 | Cc1cccc(CC(=O)Nc2cnn(-c3cccc(C(=O)N4CCNC(=O)CC4)c3)c2)c1 [SR-01000188911-1] | 7.5 | 23.6 | > 65.3 | 2.88 ± 0.43 | 4.34 | 1.7 | -0.141 | > 65.3 |  | 
6 | O=C(Nc1ccc2oc(-c3ccc4ccccc4c3)nc2c1)c1cccc(Cl)c1Cl [SR-01000415504-1] | 0.0458 | 7.3 | > 56.6 | 10.7 ± 0.62 | 1.88 | 0.136 | -0.031 | > 56.6 |  | 
7 | COc1ccccc1N1C(=O)c2ccc(C(=O)Nc3cc([N+](=O)[O-])ccc3O)cc2C1=O [SR-01000236956-1] | 22.1 | 10.6 | > 65.3 | 3.72 ± 0.2 | 2.14 | 21.2 | 2.25 | > 65.3 |  | 
8 | O=C([C@H]1CC[C@H](Nc2nccc(-c3ccc4nc(C5CC5)nc(O)c4c3)n2)CC1)N1CCCC1 [SR-00000008677-1] |  | 35.9 | > 65.3 | 4.42 ± 0.03 | 2.63 | 0.0572 | 0.06 | > 65.3 |  | 

Further lines, with some results ahead:

Row | EC50 [1, 4] [µM] | Emax [1] [%] | EC50 [1, 5] [µM] | activation at 26.1 µM [1, 6] [%] | activation at 26.1 µM [1, 7] [%] | EC50 [2, 8] [µM] | Emax [2] [%] | EC50 [2, 9] [µM] | SMILES | CyCEP ACT DCSRUN2 Averaged Max % Response [3] [%] | EC50 [3] [µM]
9 | 5.7 | 13.7 | > 49.3 | 4.18 ± 0.65 | 4.07 |  | 1.89 | > 49.3 | CCCCCCCC(=O)Nc1ccc(C(=O)Nc2ccc(O)c(C(=O)O)c2)cc1 [SR-01000507444-1] | 2.05 | > 49.3
10 | 0.0401 | 6.91 | > 56.7 | 4.37 ± 0.72 | 1.87 | 0.619 | 0.11 | > 56.7 | Cc1c(NC(=O)/C(=C\c2ccccc2)NC(=O)c2ccccc2)c(=O)n(-c2ccccc2)n1C [SR-01000422225-1] | 0.18 | > 56.7
11 | 9.2 | 16 | > 49.8 | 3.13 ± 0.23 | 2.1 |  | 1.58 | > 49.8 | COc1cc2c(cc1OC)C(COc1ccc([N+](=O)[O-])cc1)N(C(=O)c1ccc3c(c1)OCO3)CC2 (stereo not drawn) [SR-01000568734-1] |  | 
12 | 0.0032 | 11.6 | > 54.6 | 2.82 ± 0.29 | 1.87 |  | 1.99 | > 54.6 | COc1ccc(NC(=O)c2cc(S(=O)(=O)N3CCN(c4ccccn4)CC3)ccc2F)cc1 [SR-01000579121-1] |  | 
13 | 7.1 | 16.5 | > 40.4 | 7.38 ± 0.72 | 4.51 | 0.0053 | 2.4 | > 40.4 | CCc1ccc(N2CC(C(=O)NCC(C)(C)CNC(=O)C3CC(=O)N(c4ccc(CC)cc4)C3)CC2=O)cc1 (stereo not drawn) [SR-01000537224-1] |  | 
